Results reported in ChEMBL document CHEMBL1201862, “PubChem BioAssay data set” (2004).
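Following 48 hours of exposure in 96-well plates, responses at five concentrations were used to interpolate endpoints linearly. GI50 is the concentration that inhibits growth by half.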 Calls of active or inactive are those of the source. No stated cut-off is given here; in the data, active = GI50 up to about 1.1 µM and inactive = higher.

Legend:
Assay in all cases: NCI anticancer screen, dose series, 48 h
SF-539 = tested on: SF-539
HOP-62 = tested on: HOP-62
HCT-116 = tested on: HCT-116
CCRF-CEM = tested on: CCRF-CEM
SW-620 = tested on: SW-620
LOX IMVI = tested on: LOX IMVI
OVCAR-4 = tested on: OVCAR-4
MDA-MB-231 = tested on: MDA-MB-231
TK-10 = tested on: TK-10
A549 = tested on: A549
K562 = tested on: K562
SN12C = tested on: SN12C
SNB-75 = tested on: SNB-75
U-251 = tested on: U-251
SK-OV-3 = tested on: SK-OV-3
SK-MEL-28 = tested on: SK-MEL-28
M14 = tested on: M14
Malme-3M = tested on: Malme-3M
SF-268 = tested on: SF-268

SMILES | GI50 (SF-539) | GI50 (HOP-62) | GI50 (HCT-116) | GI50 (CCRF-CEM) | GI50 (SW-620) | GI50 (LOX IMVI) | GI50 (OVCAR-4) | GI50 (MDA-MB-231) | GI50 (TK-10) | GI50 (A549) | GI50 (K562) | GI50 (SN12C) | GI50 (SNB-75) | GI50 (U-251) | GI50 (SK-OV-3) | GI50 (SK-MEL-28) | GI50 (M14) | GI50 (Malme-3M) | GI50 (SF-268)
CCOC(=O)/C=C(\C(=O)OCC)n1cc(C)c(=O)n(Cc2cnnn2COCCOC(C)=O)c1=O | 2.2 µM (inactive) | 22.2 µM (inactive) | 9.42 µM (inactive) | 1.75 µM (inactive) | 2.18 µM (inactive) | 5.97 µM (inactive) | 15.6 µM (inactive) | 19.8 µM (inactive) | 4.91 µM (inactive) | 21.6 µM (inactive) | 3.4 µM (inactive) | 16 µM (inactive) | 18.4 µM (inactive) | 17.7 µM (inactive) | 55.7 µM (inactive) | 9.89 µM (inactive) | 20.7 µM (inactive) | 1.48 µM (inactive) | 15.5 µM (inactive)
CN(C)c1ccc(/N=N\c2cccc3ccoc23)cc1 | > 100 µM (inactive) | > 100 µM (inactive) | 69.2 µM (inactive) | > 100 µM (inactive) | 50.8 µM (inactive) | > 100 µM (inactive) | 29.4 µM (inactive) | > 76.9 µM (inactive) | 56.5 µM (inactive) | > 71.9 µM (inactive) | 44.8 µM (inactive) | > 75 µM (inactive) | > 84.3 µM (inactive) | > 62.5 µM (inactive) | > 100 µM (inactive) | > 100 µM (inactive) | > 40.8 µM (inactive) | > 100 µM (inactive) | > 100 µM (inactive)
COc1ccc2[nH]c(C(=O)N3CC(CCl)c4ccc([N+](=O)[O-])cc43)cc2c1 (stereo not given) | > 90.4 µM (inactive) | > 100 µM (inactive) | > 100 µM (inactive) | > 100 µM (inactive) | > 100 µM (inactive) | > 100 µM (inactive) | > 64.4 µM (inactive) | > 23.4 µM (inactive) | > 100 µM (inactive) | > 100 µM (inactive) | > 100 µM (inactive) | > 100 µM (inactive) | > 37.7 µM (inactive) | > 100 µM (inactive) | > 100 µM (inactive) | > 100 µM (inactive) | > 100 µM (inactive) | > 100 µM (inactive) | > 100 µM (inactive)
CCOC(=O)C(NC(=O)c1ccccc1)(Nc1ccc(S(=O)(=O)Nc2ccc(OC)nn2)cc1)C(F)(F)F (stereo not given) | > 100 µM (inactive) | > 100 µM (inactive) | > 100 µM (inactive) | > 100 µM (inactive) | > 100 µM (inactive) | > 100 µM (inactive) | > 100 µM (inactive) | > 100 µM (inactive) | > 100 µM (inactive) | > 100 µM (inactive) | > 100 µM (inactive) | > 100 µM (inactive) | > 100 µM (inactive) | > 100 µM (inactive) | > 100 µM (inactive) | > 100 µM (inactive) | > 100 µM (inactive) | > 100 µM (inactive) | > 100 µM (inactive)
O=C(CCc1ccc(O)cc1)NCCCNC(=O)CCc1ccc(O)cc1 | > 100 µM (inactive) | > 100 µM (inactive) | > 100 µM (inactive) | > 100 µM (inactive) | > 100 µM (inactive) | > 100 µM (inactive) | > 100 µM (inactive) | > 100 µM (inactive) | – | > 100 µM (inactive) | > 100 µM (inactive) | > 100 µM (inactive) | 24.7 µM (inactive) | > 100 µM (inactive) | > 100 µM (inactive) | > 100 µM (inactive) | > 100 µM (inactive) | > 100 µM (inactive) | > 100 µM (inactive)
COc1ccc(/N=N/c2c(C)c(C#N)c(=S)n(C3OC(CO)C(O)C(O)C3O)c2-c2ccccc2)cc1 (stereo not given) | 42.7 µM (inactive) | 37.9 µM (inactive) | 30.1 µM (inactive) | 20 µM (inactive) | 26.1 µM (inactive) | 27.8 µM (inactive) | 31.9 µM (inactive) | 51.1 µM (inactive) | 39.5 µM (inactive) | 36.7 µM (inactive) | 19.3 µM (inactive) | 32.3 µM (inactive) | 17.2 µM (inactive) | 29 µM (inactive) | 27.2 µM (inactive) | 25.3 µM (inactive) | 24.9 µM (inactive) | 30.6 µM (inactive) | 44.9 µM (inactive)
Cc1ccc(S(=O)(=O)n2cc(C#N)c(C#N)c2)cc1 | 19.6 µM (inactive) | 24.5 µM (inactive) | 31 µM (inactive) | 30.2 µM (inactive) | 34.6 µM (inactive) | 22.8 µM (inactive) | 74 µM (inactive) | 42.6 µM (inactive) | 38.3 µM (inactive) | 24.7 µM (inactive) | 33.3 µM (inactive) | 29.1 µM (inactive) | 32.7 µM (inactive) | 13.3 µM (inactive) | 19.1 µM (inactive) | 15.5 µM (inactive) | 22.4 µM (inactive) | 15.6 µM (inactive) | 26.6 µM (inactive)
CC12CC(C#N)(C#N)C(C#N)(CO1)C(=N)O2 (stereo not given) | > 100 µM (inactive) | – | 64.3 µM (inactive) | 26.9 µM (inactive) | 53.6 µM (inactive) | 49.3 µM (inactive) | > 100 µM (inactive) | > 100 µM (inactive) | > 100 µM (inactive) | > 100 µM (inactive) | 75.7 µM (inactive) | > 100 µM (inactive) | > 100 µM (inactive) | > 100 µM (inactive) | > 100 µM (inactive) | > 100 µM (inactive) | > 100 µM (inactive) | 24.2 µM (inactive) | > 100 µM (inactive)
Cc1ccc(S(=O)(=O)OC2CN3CCC2CC3)cc1 (stereo not given) | > 100 µM (inactive) | > 100 µM (inactive) | > 100 µM (inactive) | 15.5 µM (inactive) | > 100 µM (inactive) | > 100 µM (inactive) | > 100 µM (inactive) | > 100 µM (inactive) | > 100 µM (inactive) | > 100 µM (inactive) | > 100 µM (inactive) | > 100 µM (inactive) | > 100 µM (inactive) | > 100 µM (inactive) | > 100 µM (inactive) | > 100 µM (inactive) | > 100 µM (inactive) | > 100 µM (inactive) | > 100 µM (inactive)
Cc1c(CNc2ccc(Cl)c(Cl)c2Cl)cnc2nc(N)nc(N)c12 | 0.483 µM (active) | 1.04 µM (active) | 0.0208 µM (active) | 0.125 µM (active) | 0.179 µM (active) | 0.064 µM (active) | 14.5 µM (inactive) | 0.891 µM (active) | 14.1 µM (inactive) | 0.0352 µM (active) | < 0.0132 µM (active) | 1.36 µM (inactive) | 10.4 µM (inactive) | 0.172 µM (active) | > 35.6 µM (inactive) | 5.33 µM (inactive) | 0.942 µM (active) | 3.12 µM (inactive) | 0.404 µM (active)
Cc1csc(NNC(=O)Nc2ccccc2)n1 | > 100 µM (inactive) | > 100 µM (inactive) | > 100 µM (inactive) | > 100 µM (inactive) | > 100 µM (inactive) | > 100 µM (inactive) | > 100 µM (inactive) | > 100 µM (inactive) | – | > 100 µM (inactive) | > 100 µM (inactive) | > 100 µM (inactive) | > 100 µM (inactive) | > 100 µM (inactive) | > 100 µM (inactive) | > 100 µM (inactive) | > 100 µM (inactive) | > 100 µM (inactive) | > 100 µM (inactive)
Cc1c(/N=N/c2ccccc2)c(-c2ccccc2)n(C2OC(CO)C(O)C(O)C2O)c(=S)c1C#N (stereo not given) | 5.13 µM (inactive) | 7.14 µM (inactive) | – | 2.32 µM (inactive) | 4.97 µM (inactive) | 2.62 µM (inactive) | 6.1 µM (inactive) | 10 µM (inactive) | 9.29 µM (inactive) | 5.83 µM (inactive) | 3.21 µM (inactive) | 6.22 µM (inactive) | 2.72 µM (inactive) | 4.08 µM (inactive) | 11.1 µM (inactive) | 4.03 µM (inactive) | 6.5 µM (inactive) | 6.67 µM (inactive) | 8.38 µM (inactive)
Clc1ccc(C2c3ccccc3-c3nc4ccccc4n32)cc1 (stereo not given) | > 54.7 µM (inactive) | 16.9 µM (inactive) | 5.09 µM (inactive) | 17.9 µM (inactive) | 44.8 µM (inactive) | 19.7 µM (inactive) | 15.9 µM (inactive) | > 84.1 µM (inactive) | > 66.7 µM (inactive) | 7.33 µM (inactive) | > 22.4 µM (inactive) | 42.1 µM (inactive) | 24.3 µM (inactive) | 24.3 µM (inactive) | 3.34 µM (inactive) | > 56.8 µM (inactive) | 31.8 µM (inactive) | 38.8 µM (inactive) | 25 µM (inactive)
O=c1cc(NNc2cccc(F)c2)[nH]c(=O)[nH]1 | 38.9 µM (inactive) | > 100 µM (inactive) | 17.3 µM (inactive) | 22.4 µM (inactive) | 18.6 µM (inactive) | 18 µM (inactive) | > 100 µM (inactive) | 16.7 µM (inactive) | 14.2 µM (inactive) | > 100 µM (inactive) | 27.3 µM (inactive) | > 100 µM (inactive) | > 100 µM (inactive) | 17.2 µM (inactive) | > 100 µM (inactive) | > 100 µM (inactive) | 18.2 µM (inactive) | 19.4 µM (inactive) | > 100 µM (inactive)
O=C(Nc1nnc(-c2ccccc2)o1)C(SC(=S)N1CCOCC1)c1ccccc1 (stereo not given) | 33.3 µM (inactive) | 24.1 µM (inactive) | 22.5 µM (inactive) | 5.75 µM (inactive) | 42.5 µM (inactive) | 16.3 µM (inactive) | 34 µM (inactive) | 42 µM (inactive) | 51.6 µM (inactive) | 22.6 µM (inactive) | 19.5 µM (inactive) | 12.6 µM (inactive) | 47.9 µM (inactive) | 18.6 µM (inactive) | 42.9 µM (inactive) | 46.9 µM (inactive) | 20.4 µM (inactive) | 55.6 µM (inactive) | –
